# From patent publication US11422132B2, “Peptides and uses thereof for diagnosing and treating myasthenia gravis” (The Regents of the University of California, priority 2016, dated 2022)
# Entries after “also recorded” stand apart in the source; their conditions may differ.
# What was measured:
# Type in all cases: binding, rat
# mAb 35 [1] = assay: Western blot of peptide-IChBD fusion proteins probed with mAb 35; design: key to mAb 35, fold-change in binding relative to Torpedo 39MIR: ‘—’ denotes no binding; details: for mAb 35 binding relative to binding to the Torpedo 39MIR: FIG. 5 Western blots, Torpedo 39MIR single mutants; for mAb 35, fold-change in binding relative to Torpedo 39MIR: Table 1, Western blot of FIG. 5, Torpedo 39MIR single mutants; for mAb 35 binding, result in words: Western blot
# Description: (§1) Chitin beads adsorbed with peptide-IChBD fusion proteins were run on an SDS-PAGE gel and transferred to a nitrocellulose membrane and assayed with the four mAbs.
# (§2) Chitin beads adsorbed with peptide-IChBD fusion proteins were run on an SDS-PAGE gel and transferred to a nitrocellulose membrane and assayed with the five mAbs.
# (§3) To explore the effects of individual amino acid substitutions between the Torpedo and the human AChR MIR mimics, eight peptides were prepared, each with an amino acid substituted from the human sequence into the Torpedo sequence. The single amino acid substitutions in the Torpedo MIR were: N10K (SEQ ID NO:11), L12F (SEQ ID NO:12), R66K (SEQ ID NO:13), A70D (SEQ ID NO:14), I75V (SEQ ID NO:15), R79H (SEQ ID NO:16), D111Q (SEQ ID NO:17), and K115H (SEQ ID NO:18).
# mAb 198 = assay: Western blot of peptide-IChBD fusion proteins probed with mAb 198; details: for mAb 198 binding relative to Torpedo 39MIR: FIG. 5 Western blots, Torpedo 39MIR single mutants; for mAb 198 binding compared to its binding to the human 39MIR: human 39MIR mutants, relative to human 39MIR
# Description: as §1, §2
# The Torpedo (SEQ ID NO:9) and human (SEQ ID NO:8) 39MIRs were made by joining the α(1-12), α(65-79), and α(110-115) segments of their respective a subunits with GS linkers. These two MIR mimics were expressed in E. coli as fusion proteins with an IChBD tag to permit peptide collection on chitin beads. These two peptides differ from each other by eight amino acids (FIG. 2). Both mimics were probed with mAb 198. mAb 198, which was derived from rats that had been immunized with human muscle AChR, is a MIR-directed mAb that binds mammalian as well as Torpedo MIR (13,21). It was also able to passively transfer EAMG to rats and binds to both native assembled AChR and to α-subunit fragments in Western blots (22,23). mAb 198 binds to the Torpedo and human MIR peptide mimics in Western blots (FIG. 3). However, mAb 198 binds to the Torpedo mimic about 50 times more strongly than to the human MIR mimic (FIG. 3).
# as §3
# mAb 132A [2] = assay: Western blot of peptide-IChBD fusion proteins probed with mAb 132A; details: for mAb 132A binding relative to binding to the Torpedo 39MIR: FIG. 5 Western blots, Torpedo 39MIR single mutants; for mAb 132A, fold-change in binding relative to Torpedo 39MIR: Table 1, Western blot of FIG. 5, Torpedo 39MIR single mutants
# Description: as §1, §2, §3
# mAb 334 = assay: Western blot of peptide-IChBD fusion proteins probed with mAb 334; details: for mAb 334 binding relative to Torpedo 39MIR: FIG. 5 Western blots, Torpedo 39MIR single mutants; for mAb 334, fold-change in binding relative to Torpedo 39MIR: Table 1, Western blot of FIG. 5, Torpedo 39MIR single mutants
# Description: as §2, §3
# mAb 132A [3] = assay: Western blot of peptide-IChBD fusion proteins probed with mAb 132A; design: key to mAb 132A, fold-change in binding relative to Torpedo 39MIR: ‘—’ denotes no binding; details: Table 3, single-substitution human 39MIR mutants
# mAb 35 [4] = assay: Western blot of peptide-IChBD fusion proteins probed with mAb 35; details: for mAb 35, fold-change in binding relative to Torpedo 39MIR: Table 3, single-substitution human 39MIR mutants; for mAb 35 binding compared to the Torpedo 39MIR peptide: single point mutated human 39MIR peptides
# [5] = Table 1, Western blot of FIG. 5, Torpedo 39MIR single mutants
# [6] = Table 3, single-substitution human 39MIR mutants
sequence,measurement,setting,value
"SEHETRLVANLLGGGSLKWNPADYGGIKKIRGSLDYTGK (synthetic main immunogenic region (MIR) peptide) [Mutant R66K, Torpedo 39MIR single mutant (R66K)]",mAb 35 binding relative to binding to the Torpedo 39MIR,mAb 35 [1],0.62 ×
same,"mAb 35, fold-change in binding relative to Torpedo 39MIR",mAb 35 [1],0.62 fold-change
same,"mAb 198, fold-change in binding relative to Torpedo 39MIR",mAb 198; [5],1.03 fold-change
same,mAb 132A binding relative to binding to the Torpedo 39MIR,mAb 132A [2],1.55 ×
same,"mAb 132A, fold-change in binding relative to Torpedo 39MIR",mAb 132A [2],1.55 fold-change
same,mAb 334 binding relative to Torpedo 39MIR,mAb 334,2.75 ×
same,"mAb 334, fold-change in binding relative to Torpedo 39MIR",mAb 334,2.75 fold-change
"SEHETRLVANLLGGGSLRWNPADYGGIKKIRGSLQYTGK (synthetic main immunogenic region (MIR) peptide) [Mutant D111Q, Torpedo 39MIR single mutant (D111Q)]","mAb 35, fold-change in binding relative to Torpedo 39MIR",mAb 35 [1],—
same,"mAb 35 binding, result in words",mAb 35 [1],did not bind
same,mAb 198 binding relative to Torpedo 39MIR,mAb 198,0.16 ×
same,"mAb 198, fold-change in binding relative to Torpedo 39MIR",mAb 198; [5],0.16 fold-change
same,mAb 132A binding relative to binding to the Torpedo 39MIR,mAb 132A [2],0.07 ×
same,"mAb 132A, fold-change in binding relative to Torpedo 39MIR",mAb 132A [2],0.07 fold-change
same,mAb 334 binding relative to Torpedo 39MIR,mAb 334,0.02 ×
same,"mAb 334, fold-change in binding relative to Torpedo 39MIR",mAb 334,0.02 fold-change
"SEHETRLVAKLLGGGSLRWNPADYGGIKKIRGSLDYTGK (synthetic main immunogenic region (MIR) peptide) [Mutant N10K, Torpedo 39MIR single mutant (N10K)]",mAb 35 binding relative to binding to the Torpedo 39MIR,mAb 35 [1],0.29 ×
same,"mAb 35, fold-change in binding relative to Torpedo 39MIR",mAb 35 [1],0.29 fold-change
same,mAb 198 binding relative to Torpedo 39MIR,mAb 198,0.82 ×
same,"mAb 198, fold-change in binding relative to Torpedo 39MIR",mAb 198; [5],0.82 fold-change
same,mAb 132A binding relative to binding to the Torpedo 39MIR,mAb 132A [2],0.03 ×
same,"mAb 132A, fold-change in binding relative to Torpedo 39MIR",mAb 132A [2],0.03 fold-change
same,mAb 334 binding relative to Torpedo 39MIR,mAb 334,0.59 ×
same,"mAb 334, fold-change in binding relative to Torpedo 39MIR",mAb 334,0.59 fold-change
"SEHETRLVANLFGGGSLKWNPDDYGGVKKIHGSLQYTGH (synthetic main immunogenic region (MIR) peptide) [Mutant K10N, Human 39MIR single mutant (K10N)]","mAb 35 binding, result in words",mAb 35 [1],restored mAb 35 binding
same,"mAb 198, fold-change in binding relative to Torpedo 39MIR",mAb 198; [6],0.23 fold-change
same,mAb 198 binding compared to its binding to the human 39MIR,mAb 198,13 ×
same,"mAb 132A, fold-change in binding relative to Torpedo 39MIR",mAb 132A [3],—
same,"mAb 35, fold-change in binding relative to Torpedo 39MIR",mAb 35 [4],0.01 fold-change
same,mAb 35 binding compared to the Torpedo 39MIR peptide,mAb 35 [4],0.01
"SEHETRLVANLLGGGSLRWNPDDYGGIKKIRGSLDYTGK (synthetic main immunogenic region (MIR) peptide) [Mutant A70D, Torpedo 39MIR single mutant (A70D)]",mAb 35 binding relative to binding to the Torpedo 39MIR,mAb 35 [1],0.93 ×
same,"mAb 35, fold-change in binding relative to Torpedo 39MIR",mAb 35 [1],0.93 fold-change
same,"mAb 198, fold-change in binding relative to Torpedo 39MIR",mAb 198; [5],1.08 fold-change
same,mAb 132A binding relative to binding to the Torpedo 39MIR,mAb 132A [2],0.20 ×
same,"mAb 132A, fold-change in binding relative to Torpedo 39MIR",mAb 132A [2],0.20 fold-change
same,mAb 334 binding relative to Torpedo 39MIR,mAb 334,1.04 ×
same,"mAb 334, fold-change in binding relative to Torpedo 39MIR",mAb 334,1.04 fold-change
"SEHETRLVANLFGGGSLRWNPADYGGIKKIRGSLDYTGK (synthetic main immunogenic region (MIR) peptide) [Mutant L12F, Torpedo 39MIR single mutant (L12F)]",mAb 35 binding relative to binding to the Torpedo 39MIR,mAb 35 [1],1.42 ×
same,"mAb 35, fold-change in binding relative to Torpedo 39MIR",mAb 35 [1],1.42 fold-change
same,"mAb 198, fold-change in binding relative to Torpedo 39MIR",mAb 198; [5],0.90 fold-change
same,mAb 132A binding relative to binding to the Torpedo 39MIR,mAb 132A [2],1.10 ×
same,"mAb 132A, fold-change in binding relative to Torpedo 39MIR",mAb 132A [2],1.10 fold-change
same,mAb 334 binding relative to Torpedo 39MIR,mAb 334,0.88 ×
same,"mAb 334, fold-change in binding relative to Torpedo 39MIR",mAb 334,0.88 fold-change
"SEHETRLVAKLFGGGSLKWNPDDYGGIKKIHGSLQYTGH (synthetic main immunogenic region (MIR) peptide) [Mutant V75I, Human 39MIR single mutant (V75I)]","mAb 35 binding, result in words",mAb 35 [1],restored mAb 35 binding
same,"mAb 198, fold-change in binding relative to Torpedo 39MIR",mAb 198; [6],0.65 fold-change
same,mAb 198 binding compared to its binding to the human 39MIR,mAb 198,40 ×
same,"mAb 132A, fold-change in binding relative to Torpedo 39MIR",mAb 132A [3],—
same,"mAb 35, fold-change in binding relative to Torpedo 39MIR",mAb 35 [4],0.03 fold-change
same,mAb 35 binding compared to the Torpedo 39MIR peptide,mAb 35 [4],0.03
"SEHETRLVANLLGGGSLRWNPADYGGIKKIRGSLDYTGH (synthetic main immunogenic region (MIR) peptide) [Mutant K115H, Torpedo 39MIR single mutant (K115H)]","mAb 35, fold-change in binding relative to Torpedo 39MIR",mAb 35 [1],—
same,"mAb 35 binding, result in words",mAb 35 [1],did not bind; also recorded: completely abolished
same,"mAb 198, fold-change in binding relative to Torpedo 39MIR",mAb 198; [5],1.07 fold-change
same,mAb 132A binding relative to binding to the Torpedo 39MIR,mAb 132A [2],0.40 ×
same,"mAb 132A, fold-change in binding relative to Torpedo 39MIR",mAb 132A [2],0.40 fold-change
same,mAb 334 binding relative to Torpedo 39MIR,mAb 334,0.42 ×
same,"mAb 334, fold-change in binding relative to Torpedo 39MIR",mAb 334,0.42 fold-change
SEHETRLVAKLFGGGSLKWNPDDYGGVKKIHGSLDYTGH [rat 39 MIR] (synthetic main immunogenic region (MIR) peptide) [Mouse 39MIR; rat/mouse 39MIR homolog],"mAb 35 binding, result in words",mAb 35 [1],did not bind
same,"mAb 132A binding, result in words",mAb 132A [2]; Western blot,did not bind
"SEHETRLVANLLGGGSLRWNPADYGGIKKIHGSLDYTGK (synthetic main immunogenic region (MIR) peptide) [Mutant R79H, Torpedo 39MIR single mutant (R79H)]",mAb 35 binding relative to binding to the Torpedo 39MIR,mAb 35 [1],1.91 ×
same,"mAb 35, fold-change in binding relative to Torpedo 39MIR",mAb 35 [1],1.91 fold-change
same,"mAb 198, fold-change in binding relative to Torpedo 39MIR",mAb 198; [5],0.97 fold-change
same,mAb 132A binding relative to binding to the Torpedo 39MIR,mAb 132A [2],1.65 ×
same,"mAb 132A, fold-change in binding relative to Torpedo 39MIR",mAb 132A [2],1.65 fold-change
same,mAb 334 binding relative to Torpedo 39MIR,mAb 334,2.40 ×
same,"mAb 334, fold-change in binding relative to Torpedo 39MIR",mAb 334,2.40 fold-change
"SEHETRLVANLLGGGSLRWNPADYGGVKKIRGSLDYTGK (synthetic main immunogenic region (MIR) peptide) [Mutant I75V, Torpedo 39MIR single mutant (I75V)]","mAb 35, fold-change in binding relative to Torpedo 39MIR",mAb 35 [1],—
same,"mAb 35 binding, result in words",mAb 35 [1],did not bind
same,mAb 198 binding relative to Torpedo 39MIR,mAb 198,0.16 ×
same,"mAb 198, fold-change in binding relative to Torpedo 39MIR",mAb 198; [5],0.16 fold-change
same,mAb 132A binding relative to binding to the Torpedo 39MIR,mAb 132A [2],0.07 ×
same,"mAb 132A, fold-change in binding relative to Torpedo 39MIR",mAb 132A [2],0.06 fold-change
same,mAb 334 binding relative to Torpedo 39MIR,mAb 334,0.03 ×
same,"mAb 334, fold-change in binding relative to Torpedo 39MIR",mAb 334,0.03 fold-change
